Values quoted from earlier work as cited in patent US20200222348A1, “BIMODAL MODIFIED RELEASE COMPOSITIONS FOR CANCER TREATMENT” (MUSLI THYROPEUTICS LTD., priority 2017, published 2020).

Settings: stated as general knowledge

biological half-life (T3, short biological half-life): 48-60 hours
Tmax in serum (T3 in serum): about 4 hrs
Structure (SMILES): N[C@@H](Cc1cc(I)c(Oc2ccc(O)c(I)c2)c(I)c1)C(=O)O [Example T3, triiodothyronine]
